From PubChem BioAssay (NCI)
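A five-concentration, 48-hour dose response in 96-well plates underlies each endpoint, interpolated linearly between surrounding concentrations. GI50 is the concentration that inhibits growth by half. TGI: concentration producing complete growth inhibition.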

What was measured:
Test in all cases: DTP human tumour cell line panel, 48 h
[1] = system: NCI-H226 lung
[2] = system: MDA-MB-231 breast
[3] = system: KM12 colon
[4] = system: SF-295 CNS
[5] = system: NCI/ADR-RES ovarian
[6] = system: HCC-2998 colon
[7] = system: MDA-MB-435
[8] = system: OVCAR-4 ovarian
[9] = system: A549 NSCLC
[10] = system: NCI-H460 lung

Row | SMILES | GI50 [1] [µM] | TGI [1] [µM] | GI50 [2] [µM] | TGI [2] [µM] | GI50 [3] [µM] | TGI [3] [µM] | GI50 [4] [µM] | TGI [4] [µM] | GI50 [5] [µM] | TGI [5] [µM] | GI50 [6] [µM] | TGI [6] [µM] | GI50 [7] [µM] | TGI [7] [µM] | GI50 [8] [µM] | TGI [8] [µM] | GI50 [9] [µM] | TGI [9] [µM] | GI50 [10] [µM] | TGI [10] [µM]
1 | O=C(c1ccc2ccccc2c1)c1nc2cc(F)ccc2[n+]([O-])c1C(F)(F)F | 22.2 | 46.5 | 18.8 | 38 | 19 | 39.4 | 18.3 | 37.9 | 21.2 | 42.8 | 15.8 | 31.3 | 15.2 | 28.6 | 18.7 | 36.8 | 20.6 | 53.7 | 18.8 | 38
2 | COc1ccc(C(=O)c2sc3nc(-c4ccccc4OC)ccc3c2N)cc1OC | 5.13 | > 100 | 3.44 | 42.3 | 9.67 | > 100 | 4.37 | 54.3 | 5.05 | > 100 | 9.71 | > 100 | 4.25 | > 100 | 7.49 | > 100 | 5.85 | > 100 | 9.61 | > 100
3 | CCCC1(CN2c3ccccc3Sc3ccc(Cl)cc32)CCN(CC)C1 (stereo not given) | 1.74 | 3.76 | 1.88 | 3.55 | 1.65 | 3.18 | 1.7 | 3.3 | 1.68 | 3.36 | 1.68 | 3.27 | 1.79 | 3.47 | 1.75 | 3.39 | 1.78 | 3.38 | 1.94 | 3.67
4 | CCOC(=O)c1ccc(NC(=O)NC2=NCCS2)cc1 | 3.14 | > 100 | 1.64 | > 100 | 0.434 | > 100 | 0.619 | 6.13 | 0.505 | > 49.6 | 3.91 | > 76.7 | 3.42 | 19.4 | 56.1 | > 100 | 0.584 | > 100 | 3.2 | > 100
5 | C=C1C(=O)O[C@H]2[C@H]1CC/C(COC(=O)NCc1ccc(Cn3c(=O)sn(CCCCC)c3=O)cc1)=C\CC[C@@]1(C)O[C@@H]21 | 10.7 | 27.6 | 1.72 | 3.46 | 2.23 | 4.94 | 12.5 | 25.1 | 14.4 | 46.5 | 3.55 | 11.1 | 1.71 | 3.5 | 1.62 | 3.3 | 8.82 | 22.8 | 3.42 | 12.5
6 | Clc1ccc(/C=C/c2ccc3ccccc3n2)cc1 | 25 | > 100 | 2.3 | > 100 | 1.42 | 20.6 | 1.2 | 6.8 | 6.27 | 29.4 | 0.968 | 8.41 | 0.226 | 0.531 | > 69.8 | > 100 | 1.75 | > 100 | 1.2 | 15.7
7 | CC(NC(=O)Cc1ccc(C(F)(F)P(=O)(OCc2ccc([N+](=O)[O-])o2)N(C)CCCCCl)cc1)c1ccc(OCC2CCCCC2)c(C(N)=O)c1 (stereo not given) | 5.52 | 15.1 | 15.7 | 35.3 | 3.32 | 10.2 | 4.52 | 12.3 | 6.51 | > 93.4 | 3.25 | 9.11 | 2.69 | 6.73 | 3.33 | 12 | 14.5 | 58.7 | 8.26 | 26.2
8 | c1ccc(-c2nc3n(c2-c2ccc4c(c2)OCO4)CCC3)nc1 | 4.54 | 17 | 4.25 | > 25 | 5.9 | > 25 | 4.8 | 24.5 | 0.573 | 9.59 | 10.4 | > 25 | 8.8 | > 25 | 2.41 | 15.8 | 5.88 | > 25 | 4.51 | 13.3
9 | C=CC(C)(C)n1cc(C2=C(O)C(=O)C(c3cn(C(C)(C)C=C)c4ccccc34)=C(O)C2=O)c2ccccc21 | – | 14.3 | – | 8.27 | – | 13.5 | – | 12.8 | – | 6.72 | – | 9.8 | – | 14.7 | – | 6.92 | – | 14.6 | – | 12.6
10 | COc1cc(OCc2cccc(-c3ccccc3)c2C)cc(OC)c1CN1CCCCC1C(=O)NCCOCCOCCN (stereo not given) | 14.7 | 30.9 | 1.8 | 3.84 | 3.2 | 11.4 | 2.03 | 4.23 | 12.6 | 27.2 | 2.39 | 5.85 | 1.79 | 3.32 | 2.33 | 6.48 | 3.04 | 10.7 | 1.83 | 3.73
